Laboratory results reported in patent US10966969B2, “Therapeutic agent for liver diseases” (APTABIO THERAPEUTICS INC., priority 2017, dated 2021).

Tests used:
[1] = test system: fatty liver model animal induced by MCD (methionine/choline deficient) diet; experiment: Test using fatty liver model animal induced by MCD (methionine/choline deficient) diet; type: in vivo, Sprague Dawley (SD) rats; details: MCD diet rats, daily single dose of 60 mg/kg, compared to the vehicle group
Protocol: As subject animals, 6-week-old male Sprague Dawley (SD) rats were purchased. All rats were kept under standard conditions. When the rats became 12 weeks old after being bred for about 6 weeks, test substances were administered to the rats. Test groups were set based on ALT level in blood collected at 5 weeks. For 5 weeks after the rats became 12 weeks old, test substances were separately administered to a vehicle administration group and a 3-phenyl-4-n-propyl-1-(pyridin-2-yl)-1H-pyrazol-5-ol hydrochloride administration group. A normal control group was used as a negative control. Blood was collected one day before the start of the experiment (from the jugular vein), and blood samples were collected on the 3 weeks, 5 weeks, 7 weeks, 9 weeks and on the day of the autopsy (24 hours after the fasting, total six times). In addition, plasma of each blood sample collected on the 5 weeks, 7 weeks, 9 weeks and on the day of the autopsy were analyzed. After completion of the test, the animals were anesthetized, liver tissues were taken out from respective animals and blood for inspection was collected. The liver tissues were weighed and imaged. The liver tissues were immobilized in 10% buffered neutral formalin. […] In addition to H&E staining, Oil red-O staining was conducted in order to observe lipids induced by formation of fatty liver, levels of produced lipids were measured and an effect of drug administration on reduction of lipids was predicted. […] The serum of the upper layer was taken and the level of alanine transaminase (ALT) was measured using an automatic blood biochemical analyzer (AU480, Beckman 30-18 Coulter, USA) and the results were analyzed. A ratio of liver weight to body weight was measured and the amount of triglyceride in liver tissues was measured to expect effects of drug administration on reduction of relative liver weight and triglyceride. […] Results are analyzed.

[2] = test system: fatty liver model animal induced by high fat diet; experiment: Test using fatty liver model animal induced by high fat diet; type: in vivo; details: high fat diet rats, daily single dose of 60 mg/kg, compared to the vehicle group and the obeticholic acid group
Protocol: As subject animals, 6-week-old rats were purchased. All rats were kept under standard conditions. When the rats became 12 weeks old after being bred for about 6 weeks, test substances were administered to the rats. Test groups were set based on ALT level in blood collected at 5 weeks. For 5 weeks after the rats reached 12 weeks old, test substances were separately administered to a vehicle administration group, an obeticholic acid administration group as a positive control group, and a 3-phenyl-4-normalpropyl-1-(pyridin-2-yl)-1H-pyrazol-5-ol hydrochloride administration group. Blood was collected one day before the start of the experiment (from jugular vein), and blood samples were collected on the 5 weeks, 8 weeks and on the day of the autopsy (24 hours after the fasting, total 4 times). In addition, plasma of each blood sample collected on the 5th week, 8th week and the day of the autopsy were analyzed. After completion of the test, the animals were anesthetized, liver tissues were taken out from respective animals and blood for inspection was collected. The liver tissues were weighed and imaged. The liver tissues were immobilized in 10% buffered neutral formalin. The immobilized tissues were cut to a predetermined thickness, subjected to a general tissue treatment process, embedded in paraffin and produced into tissue sections with a size of 4 to 5 μm, and the tissue sections were subjected to Hematoxylin & Eosin (H&E stain) as a general staining method and were histopatho-logically observed. In addition to H&E staining, Oil red-o staining was conducted in order to observe lipids induced by formation of fatty liver, levels of produced lipids were measured and an effect of drug administration on reduction of lipids was predicted. The liver tissues were stained with an Oil red o working solution, to evaluate levels of produced lipids. Blood was collected and centrifuged at 3000 rpm at 4° C. for 10 min. The serum of the upper layer was taken and the levels of alkaline phosphate (ALP), aspartate transminase (AST) and alanine transaminase (ALT) were measured using an automatic blood biochemical analyzer (AU480, Beckman 30-18 Coulter, USA) and the results were analyzed. A ratio of liver weight to body weight was measured and the amount of triglyceride in liver tissues was measured to expect effects of drug administration on reduction of relative liver weight and triglyceride. The liver tissues were ground with a homogenizer, chloroform and methanol (2:1) were added thereto, the resulting mixture was centrifuged at 3,000 rpm and at 4° C. for 10 minutes and the organic solvent layer containing lipids was separated. The organic solvent in the separated lipid layer was removed in the dryer at 50° C. for 12 hours. […]

[3] = test system: fatty liver model animal induced by diabetic db/db mice; experiment: Test using fatty liver model animal induced by diabetic db/db mice; type: in vivo, diabetic db/db mice (C57BLKS/J-leprdb/leprdb); details: daily single dose of 60 mg/kg
Protocol: As subject animals, 6-week-old male diabetic db/db mice (C57BLKS/J-leprdb/leprdb) were purchased from Jackson Laboratory (Bar Harbor, Me., USA). The mice were kept under standard conditions. When the mice became 8 weeks old after being bred for about 2 weeks, test substances were administered to the mice. For 12 weeks after the mice became 8 weeks old, test substances were separately administered to a vehicle administration group and a 3-phenyl-4-normalpropyl-1-(pyridin-2-yl)-1H-pyrazol-5-ol hydrochloride administration group. A normal control group was used as a negative control. After completion of the test, the animals were anesthetized, liver tissues were taken out from respective animals and blood for inspection was collected. The liver tissues were weighed and imaged. The liver tissues were immobilized in 10% buffered neutral formalin. The immobilized tissues were cut to a predetermined thickness, subjected to a general tissue treatment process, embedded in paraffin and produced into tissue sections with a size of 4 to 5 μm, and the tissue sections were subjected to Hematoxylin & Eosin (H&E stain) as a general staining method and were histopatho-logically observed. In addition to H&E staining, Oil red-O staining was conducted in order to observe lipids induced by formation of fatty liver, levels of produced lipids were measured and an effect of drug administration on reduction of lipids was predicted. The liver tissues were stained with an Oil red 0 working solution, to evaluate levels of produced lipids. Blood was collected and centrifuged at 3000 rpm at 4° C. for 10 min. The serum of the upper layer was taken and the levels of triglyceride (TG) and LDL-cholesterol (LDL-C) were measured using an automatic blood biochemical analyzer (AU480, Beckman 30-18 Coulter, USA) and the results were analyzed. A ratio of liver weight to body weight was measured and the amount of triglyceride in liver tissues was measured to expect effects of drug administration on reduction of relative liver weight and triglyceride. The liver tissues were ground with a homogenizer, chloroform and methanol (2:1) were added thereto, the resulting mixture was centrifuged at 3,000 rpm and at 4° C. for 10 minutes and the organic solvent layer containing lipids was separated. The organic solvent in the separated lipid layer was removed in the dryer at 50° C. for 12 hours. The lipid-only tubes were immersed in 100% EtOH, and then suspended in a lipid-free tube and then assayed with a kit reagent for measuring triglyceride (AM157S-K, Asan, Korea).

[4] = compared to the vehicle group, FIG. 6C

CCCc1c(-c2ccccc2)nn(-c2ccccn2)c1O.Cl [compound 1, 3-phenyl-4-n-propyl-1-(pyridin-2-yl)-1H-pyrazol-5-ol hydrochloride]
decreasing levels: level of LDL in blood ([3]; FIG. 6A and 6B) | level of LDL in liver tissues ([3]; FIG. 6A and 6B) | level of TG in blood ([3]; FIG. 6A and 6B) | level of TG in liver tissues ([3]; FIG. 6A and 6B)
considerably reduced: inflammation in liver tissues (staining of α-SMA, IL-1β and TNF-α) ([1]; FIG. 2) | mRNA expression of MCP-1 in liver tissues [3, 4] | mRNA expression of PAI-1 in liver tissues [3, 4] | mRNA expression of TGF-β in liver tissues [3, 4] | mRNA expression of collagen I in liver tissues [3, 4] | mRNA expression of collagen IV in liver tissues [3, 4]
considerably decreased: level of ALP in blood ([2]; FIG. 4B-4D) | level of ALT in blood ([2]; FIG. 4B-4D) | level of AST in blood ([2]; FIG. 4B-4D)
reduced: liver tissue damage and hepatic fibrosis (TGF-β, H&E staining, Oil red O staining) ([1]; FIG. 3)
significantly reduced: level of ALT in the blood ([1]; FIG. 1) | relative liver weight ([2]; FIG. 4A) | liver tissue damage and hepatic fibrosis (TGF-β and Type IV collagen staining in liver tissues) ([3]; compared to the vehicle group, FIG. 5)
